Source: paper PMC6751662, “Pharmacological and functional similarities of the human neuropeptide Y system in C. elegans challenges phylogenetic views on the FLP/NPR system” (Cell Communication and Signaling : CCS, 2019)

Assays:
Type in all cases: cell-based, C. elegans
NPR-5b = target: T1, NPR-5b (Caenorhabditis elegans, UniProt Q6F3C9); assay: cAMP reporter gene assay, Gi/o (with forskolin), NPR-5b; conditions: for cAMP assay Gi, NPR-5b: 4 h, transfected HEK293, CRE-luciferase, increase consistent with Gs coupling, mean of >=3 independent experiments; for cAMP, x-fold of forskolin (mean), NPR-5b: 1 µM forskolin set to 1.00, values > 1 = cAMP stimulation; for cAMP, x-fold of forskolin (mean), NPR-5b / Gi (Gs) [x-fold of forskolin], NPR-5b, mean: transiently transfected HEK293 cells, mean of at least three independent experiments; for Gi (Gs) [x-fold of forskolin], NPR-5b, mean: with 1 µM forskolin (set to 1.00), increase of cellular cAMP consistent with Gs coupling
T1 sequence (Q6F3C9 1-433): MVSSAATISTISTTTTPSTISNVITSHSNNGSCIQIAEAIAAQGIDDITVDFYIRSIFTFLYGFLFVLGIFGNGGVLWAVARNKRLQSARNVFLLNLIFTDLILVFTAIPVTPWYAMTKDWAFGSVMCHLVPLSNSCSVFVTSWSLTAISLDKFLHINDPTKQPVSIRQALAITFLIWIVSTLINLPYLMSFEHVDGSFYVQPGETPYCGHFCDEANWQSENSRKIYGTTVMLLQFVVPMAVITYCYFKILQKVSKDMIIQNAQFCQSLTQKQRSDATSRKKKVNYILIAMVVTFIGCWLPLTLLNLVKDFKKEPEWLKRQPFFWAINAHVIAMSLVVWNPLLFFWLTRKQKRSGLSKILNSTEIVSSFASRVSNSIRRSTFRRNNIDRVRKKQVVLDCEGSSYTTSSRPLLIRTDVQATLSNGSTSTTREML
Experimental: (§1) Activation of Gs and Gi/o was assessed with a cAMP reporter gene assay. HEK293 cells grown to 70–80% confluency in 6-well plates were transiently co-transfected with vectors encoding the receptor and the cAMP reporter gene plasmid pGL4.29 [luc2P/CRE/Hygro] (Promega; 4 μg total, 1:1 ratio) using Metafectene Pro (3 μl/μg DNA; Biontex) following the manufacturer’s instructions. 16 h post transfection, the cells were seeded into white 384-well plates at a density of 20,000 cells/well. On the next day, the medium was removed and the cells were stimulated with 20 μl of peptide solution (or forskolin as positive control) in serum-free DMEM for 4 h. For measuring Gi/o activity, the peptide solutions additionally contained 1 μM forskolin to elevate cellular cAMP levels. After incubation, the luciferase substrate OneGlo in lysis buffer (Promega) was added and the luminescence was measured in a microplate reader Tecan Spark (Tecan).
(§2) For in vitro activation, data is presented as mean ± SEM of at least three independent experiments conducted in technical triplicate. […] For the C. elegans NPRs, we considered the strongest response elicited by any of the peptides downstream of a particular receptor as the receptor’s maximal signal. This may or may not be the biological maximum that can be reached by the ‘true’ endogenous agonist. For the human receptors, the response to the established endogenous agonist reflected the maximal signal.

NPR-11 = target: T2, NPR-11 (Caenorhabditis elegans, UniProt Q18179); assay: cAMP reporter gene assay, Gi/o (inhibition of forskolin-induced cAMP), NPR-11; conditions: for cAMP assay Gi, NPR-11: 4 h, lower = higher Gi/o activity, transfected HEK293, CRE-luciferase, mean of >=3 independent experiments; for cAMP, x-fold of forskolin (mean), NPR-11: 1 µM forskolin set to 1.00; for cAMP, x-fold of forskolin (mean), NPR-11 / Gi (Gs) [x-fold of forskolin], NPR-11, mean: transiently transfected HEK293 cells, mean of at least three independent experiments; for Gi (Gs) [x-fold of forskolin], NPR-11, mean: inhibition of cAMP production induced by 1 µM forskolin (set to 1.00)
T2 construct: expressed in transfected cells; host or cells: HEK293, transient
T2 sequence (Q18179 1-402): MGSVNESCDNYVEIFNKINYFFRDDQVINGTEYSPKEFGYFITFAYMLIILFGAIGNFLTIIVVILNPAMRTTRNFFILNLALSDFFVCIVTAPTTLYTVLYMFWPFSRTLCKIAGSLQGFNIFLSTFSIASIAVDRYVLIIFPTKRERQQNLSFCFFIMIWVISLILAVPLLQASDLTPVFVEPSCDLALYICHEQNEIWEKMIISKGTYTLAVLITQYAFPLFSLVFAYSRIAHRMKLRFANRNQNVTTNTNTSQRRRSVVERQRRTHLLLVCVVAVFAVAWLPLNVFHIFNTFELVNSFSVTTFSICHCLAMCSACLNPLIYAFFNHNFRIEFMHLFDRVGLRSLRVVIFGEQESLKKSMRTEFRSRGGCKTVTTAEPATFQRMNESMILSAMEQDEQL
Experimental: as §1, with “(Tecan). Data were analyzed with GraphPad Prism 5.03 and are shown as fold of basal or fold of forskolin in case of Gαi/o activity.” for “(Tecan).”
as §2

NPR-4b = target: T3, NPR-4b (Caenorhabditis elegans, UniProt A0A078BTK0); assay: cAMP reporter gene assay, Gi/o (inhibition of forskolin-induced cAMP), NPR-4b; conditions: for cAMP assay Gi, NPR-4b: 4 h, lower = higher Gi/o activity, transfected HEK293, CRE-luciferase, mean of >=3 independent experiments; for cAMP, x-fold of forskolin (mean), NPR-4b: 1 µM forskolin set to 1.00; for cAMP, x-fold of forskolin (mean), NPR-4b / Gi (Gs) [x-fold of forskolin], NPR-4b, mean: transiently transfected HEK293 cells, mean of at least three independent experiments; for Gi (Gs) [x-fold of forskolin], NPR-4b, mean: inhibition of cAMP production induced by 1 µM forskolin (set to 1.00)
T3 sequence (A0A078BTK0 1-376): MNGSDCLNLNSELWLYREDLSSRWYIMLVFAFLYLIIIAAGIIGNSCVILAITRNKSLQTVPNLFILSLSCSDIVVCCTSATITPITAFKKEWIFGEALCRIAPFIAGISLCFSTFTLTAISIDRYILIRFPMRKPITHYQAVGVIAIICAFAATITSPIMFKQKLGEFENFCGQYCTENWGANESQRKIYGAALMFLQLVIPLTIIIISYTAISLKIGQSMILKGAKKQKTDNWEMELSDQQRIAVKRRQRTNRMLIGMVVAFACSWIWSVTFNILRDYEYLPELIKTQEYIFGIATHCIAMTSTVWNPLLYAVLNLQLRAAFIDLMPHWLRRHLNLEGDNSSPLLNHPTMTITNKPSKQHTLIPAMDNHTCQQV
Experimental: as §1, §2

NPR-6 = assay: cAMP reporter gene assay, Gi/o (inhibition of forskolin-induced cAMP), NPR-6; conditions: for cAMP assay Gi, NPR-6: 4 h, lower = higher Gi/o activity, transfected HEK293, CRE-luciferase, mean of >=3 independent experiments; for cAMP, x-fold of forskolin (mean), NPR-6: 1 µM forskolin set to 1.00; for cAMP, x-fold of forskolin (mean), NPR-6 / Gi (Gs) [x-fold of forskolin], NPR-6, mean: transiently transfected HEK293 cells, mean of at least three independent experiments; for Gi (Gs) [x-fold of forskolin], NPR-6, mean: inhibition of cAMP production induced by 1 µM forskolin (set to 1.00)
Experimental: as §1, with “(Tecan). Data were analyzed with GraphPad Prism 5.03 and are shown as fold of basal or fold of forskolin in case of Gαi/o activity.” for “(Tecan).”
as §2

[1] = 0.1 µM peptide + 1 µM forskolin (set to 1.00)
[2] = 10 µM peptide + 1 µM forskolin (set to 1.00)

Substance | cAMP, x-fold of forskolin (mean), NPR-5b (NPR-5b; 0.1 µM peptide) | cAMP, x-fold of forskolin (mean), NPR-5b (NPR-5b; 10 µM peptide) | cAMP, x-fold of forskolin (mean), NPR-11 (NPR-11; 0.1 µM peptide) | cAMP, x-fold of forskolin (mean), NPR-11 (NPR-11; 10 µM peptide) | cAMP, x-fold of forskolin (mean), NPR-4b (NPR-4b; 0.1 µM peptide) | cAMP, x-fold of forskolin (mean), NPR-4b (NPR-4b; 10 µM peptide) | Gi (Gs) [x-fold of forskolin], NPR-5b, mean (NPR-5b; 0.1 µM peptide) | Gi (Gs) [x-fold of forskolin], NPR-5b, mean (NPR-5b; 10 µM peptide) | Gi (Gs) [x-fold of forskolin], NPR-11, mean (NPR-11; 0.1 µM peptide) | Gi (Gs) [x-fold of forskolin], NPR-11, mean (NPR-11; 10 µM peptide) | Gi (Gs) [x-fold of forskolin], NPR-4b, mean (NPR-4b; 0.1 µM peptide) | Gi (Gs) [x-fold of forskolin], NPR-4b, mean (NPR-4b; 10 µM peptide) | cAMP, x-fold of forskolin (mean), NPR-6 (NPR-6; 0.1 µM peptide) | cAMP, x-fold of forskolin (mean), NPR-6 (NPR-6; 10 µM peptide) | Gi (Gs) [x-fold of forskolin], NPR-6, mean (NPR-6; 0.1 µM peptide) | Gi (Gs) [x-fold of forskolin], NPR-6, mean (NPR-6; 10 µM peptide) | also measured
APKPKFIRF-NH2 [FLP-5-1, C. elegans FMRFamide-like peptide, C-terminally amidated, synthesized by SPPS] | 0.91 x-fold of forskolin | 1.96 x-fold of forskolin | 0.94 x-fold of forskolin | 0.48 x-fold of forskolin | 0.73 x-fold of forskolin | 0.36 x-fold of forskolin |  |  |  |  |  |  | 0.84 x-fold of forskolin | 1.01 x-fold of forskolin |  |  | cAMP assay Gi, NPR-5b (NPR-5b; [1]): 0.92 x-fold of forskolin; cAMP assay Gi, NPR-5b (NPR-5b; [2]): 1.90 x-fold of forskolin; cAMP assay Gi, NPR-11 (NPR-11; [1]): 0.94 x-fold of forskolin; cAMP assay Gi, NPR-11 (NPR-11; [2]): 0.51 x-fold of forskolin; cAMP assay Gi, NPR-4b (NPR-4b; [1]): 0.75 x-fold of forskolin; cAMP assay Gi, NPR-4b (NPR-4b; [2]): 0.40 x-fold of forskolin; cAMP assay Gi, NPR-6 (NPR-6; [1]): 0.85 x-fold of forskolin; cAMP assay Gi, NPR-6 (NPR-6; [2]): 1.01 x-fold of forskolin
GLGPRPLAF-NH2 [[R8A]FLP-21, R8A control peptide of FLP-21, penultimate arginine exchanged for an alanine] |  |  |  |  |  |  | 1.06 x-fold of forskolin | 0.97 x-fold of forskolin | 0.87 x-fold of forskolin | 0.67 x-fold of forskolin | 0.95 x-fold of forskolin | 0.99 x-fold of forskolin |  |  | 1.00 x-fold of forskolin | 0.86 x-fold of forskolin | 
ASPSFIRF-NH2 [FLP-4-2, C. elegans FMRFamide-like peptide, C-terminally amidated, synthesized by SPPS] | 0.90 x-fold of forskolin | 1.82 x-fold of forskolin | 0.89 x-fold of forskolin | 0.83 x-fold of forskolin | 0.52 x-fold of forskolin | 0.19 x-fold of forskolin |  |  |  |  |  |  | 0.86 x-fold of forskolin | 0.72 x-fold of forskolin |  |  | 
AGSDPNFLRF-NH2 [FLP-1-2, C. elegans FMRFamide-like peptide, C-terminally amidated, synthesized by SPPS] | 1.02 x-fold of forskolin | 1.72 x-fold of forskolin | 0.92 x-fold of forskolin | 0.72 x-fold of forskolin | 0.81 x-fold of forskolin | 0.42 x-fold of forskolin |  |  |  |  |  |  | 0.94 x-fold of forskolin | 0.29 x-fold of forskolin |  |  | 

More lines, main results first:

cAMP, x-fold of forskolin (mean), NPR-5b (NPR-5b; 0.1 µM peptide) | cAMP, x-fold of forskolin (mean), NPR-5b (NPR-5b; 10 µM peptide) | cAMP, x-fold of forskolin (mean), NPR-11 (NPR-11; 0.1 µM peptide) | cAMP, x-fold of forskolin (mean), NPR-11 (NPR-11; 10 µM peptide) | cAMP, x-fold of forskolin (mean), NPR-4b (NPR-4b; 0.1 µM peptide) | cAMP, x-fold of forskolin (mean), NPR-4b (NPR-4b; 10 µM peptide) | Gi (Gs) [x-fold of forskolin], NPR-5b, mean (NPR-5b; 0.1 µM peptide) | Gi (Gs) [x-fold of forskolin], NPR-5b, mean (NPR-5b; 10 µM peptide) | Gi (Gs) [x-fold of forskolin], NPR-11, mean (NPR-11; 0.1 µM peptide) | Gi (Gs) [x-fold of forskolin], NPR-11, mean (NPR-11; 10 µM peptide) | Gi (Gs) [x-fold of forskolin], NPR-4b, mean (NPR-4b; 0.1 µM peptide) | Gi (Gs) [x-fold of forskolin], NPR-4b, mean (NPR-4b; 10 µM peptide) | Substance | cAMP, x-fold of forskolin (mean), NPR-6 (NPR-6; 0.1 µM peptide) | cAMP, x-fold of forskolin (mean), NPR-6 (NPR-6; 10 µM peptide) | Gi (Gs) [x-fold of forskolin], NPR-6, mean (NPR-6; 0.1 µM peptide) | Gi (Gs) [x-fold of forskolin], NPR-6, mean (NPR-6; 10 µM peptide) | also measured
 |  |  |  |  |  | 0.98 x-fold of forskolin | 0.93 x-fold of forskolin | 0.93 x-fold of forskolin | 0.53 x-fold of forskolin | 0.93 x-fold of forskolin | 0.97 x-fold of forskolin | RGPSGPLAF-NH2 [[R8A]FLP-15-2] |  |  | 0.92 x-fold of forskolin | 0.99 x-fold of forskolin | 
1.10 x-fold of forskolin | 3.95 x-fold of forskolin | 0.80 x-fold of forskolin | 0.97 x-fold of forskolin | 0.67 x-fold of forskolin | 0.23 x-fold of forskolin |  |  |  |  |  |  | NPENDTPFGTMRF-NH2 [FLP-3-4, C. elegans FMRFamide-like peptide, C-terminally amidated, synthesized by SPPS] | 0.85 x-fold of forskolin | 0.26 x-fold of forskolin |  |  | 
